Results taken from US8445028B2, “Echinoderm-derived extracts, methods of preparation and uses thereof” (Rival, S.E.C., priority 2008, dated 2013).

Experiment: Oxygen Radical Absorption Capacity (ORAC) assay, fluorescein/AAPH, Trolox equivalents
Format: biochemical
Details: pure antioxidants, analyses performed in the present studies; Table IV
Text: The Oxygen Radical Absorption Capacity (ORAC) assay is commonly used to measure the antioxidative capacity of various antioxidants. The ORAC assay provides an effective measure of antioxidant protection afforded to physiologically important biomolecules such as proteins. ORAC assays that may be used in the present invention include, for example, those described in U.S. Pat. No. 6,060,324, Methods in Enzymology (1999) 299: 50-62 (Cao and Prior), and Ou et al., 2001. J. Agric. Food Chem. 49: 4619-4626. […] Unless otherwise stated, the ORAC values are expressed as a TroloxTM equivalent value per gram of extract. Antioxidant properties of extracts were estimated using the Oxygen Radical Absorption Capacity (ORAC) method. The analytical procedure has been adapted from a published method (Ou et al., 2001. J. Agric. Food Chem. 49: 4619-4626), using 96-well microplates and a […] spectrofluorometer (Molecular Devices Corporation, Sunnyvale, Calif., USA). After appropriate dilution (typically between 1/100 to 1/1000), a 30-μl aliquot of the extract was added to each well in which 150 μl of 1.04 μM fluorescein and 30 μl of 162 mM 2,2'-azobis (2-amidinopropane) hydrochloride (AAPH) were previously added. TroloxTM (6-hydroxy-2,5,7,8-tetramethylchroman-2-carboxylic acid), a water soluble analog of vitamin E, was used as positive control, and phosphate buffer pH 7.4 was used as the analytical blank. The reactive mixture was incubated at 37.5° C. for 90 min. Final results were calculated as a function of the difference between the surface under the curves between blanks and extracts, and the antioxidant properties expressed as ORAC values in equivalent micromolar of TroloxTM by dry weight of the sample (μmol TE/g extract).

Molecule	ORAC values [μmol TE/g dry extract]
Cc1c(C)c2c(c(C)c1O)CC[C@@](C)(CCC[C@H](C)CCC[C@H](C)CCCC(C)C)O2 [α-Tocopherol]	5657
CC1=C(/C=C/C(C)=C/C=C/C(C)=C/C=C/C=C(C)/C=C/C=C(C)/C=C/C2=C(C)CCCC2(C)C)C(C)(C)CCC1 [β-carotene]	3183
Catechin	16601
